Laboratory results taken from ChEMBL document CHEMBL1131645, “Synthesis and activity studies of N-[omega-N'-(adamant-1'-yl)aminoalkyl]- 2-(4'-dimethylaminophenyl)acetamides: in the search of selective inhibitors for the different molecular forms of acetylcholinesterase” (Bioorg Med Chem Lett, 1998).

What was measured:
[1] = biological target: T1, Acetylcholinesterase (Bos taurus, UniProt P23795)
T1 sequence (P23795 whole entry): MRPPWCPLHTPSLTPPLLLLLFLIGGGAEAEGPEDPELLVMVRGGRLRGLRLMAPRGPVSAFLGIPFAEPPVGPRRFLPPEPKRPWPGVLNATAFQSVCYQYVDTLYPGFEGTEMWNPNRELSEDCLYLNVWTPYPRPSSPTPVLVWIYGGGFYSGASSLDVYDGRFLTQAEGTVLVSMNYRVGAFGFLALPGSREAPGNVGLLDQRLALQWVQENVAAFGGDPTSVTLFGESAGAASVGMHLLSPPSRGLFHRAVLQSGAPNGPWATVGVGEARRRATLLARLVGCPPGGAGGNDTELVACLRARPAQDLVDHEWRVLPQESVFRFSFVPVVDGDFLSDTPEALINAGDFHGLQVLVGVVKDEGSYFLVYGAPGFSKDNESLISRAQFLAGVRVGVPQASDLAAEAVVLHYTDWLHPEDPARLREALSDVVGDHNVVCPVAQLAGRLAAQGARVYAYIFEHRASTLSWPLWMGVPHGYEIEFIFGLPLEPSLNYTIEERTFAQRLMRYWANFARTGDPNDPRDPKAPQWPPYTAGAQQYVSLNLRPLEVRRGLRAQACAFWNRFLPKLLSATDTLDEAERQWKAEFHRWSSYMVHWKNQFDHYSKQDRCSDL
Description: Compound was evaluated for the inhibition of acetylcholinesterase (AChE) in bovine brain

[2] = biological target: T2, Acetylcholinesterase (Torpedo californica, UniProt P04058)
T2 sequence (P04058 whole entry): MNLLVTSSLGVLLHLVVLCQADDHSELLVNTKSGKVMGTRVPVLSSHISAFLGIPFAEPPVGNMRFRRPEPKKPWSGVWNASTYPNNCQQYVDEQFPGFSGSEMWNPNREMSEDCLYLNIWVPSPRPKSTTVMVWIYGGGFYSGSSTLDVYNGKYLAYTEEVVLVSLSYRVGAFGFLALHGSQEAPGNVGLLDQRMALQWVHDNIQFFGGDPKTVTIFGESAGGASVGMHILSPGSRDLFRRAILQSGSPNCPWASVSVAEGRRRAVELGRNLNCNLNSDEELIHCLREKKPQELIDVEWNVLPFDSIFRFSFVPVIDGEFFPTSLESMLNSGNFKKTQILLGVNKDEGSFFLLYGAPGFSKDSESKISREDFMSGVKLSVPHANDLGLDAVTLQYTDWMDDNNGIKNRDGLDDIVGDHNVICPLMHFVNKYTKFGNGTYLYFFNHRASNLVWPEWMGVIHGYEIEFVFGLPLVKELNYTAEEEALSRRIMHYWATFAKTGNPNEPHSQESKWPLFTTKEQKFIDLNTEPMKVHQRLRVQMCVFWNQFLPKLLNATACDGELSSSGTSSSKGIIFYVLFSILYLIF
Description: Compound was evaluated for the inhibition of acetylcholinesterase (AChE) in Torpedo californica

[3] = biological target: T3, Acetylcholinesterase (Electrophorus electricus, UniProt O42275)
T3 sequence (O42275 whole entry): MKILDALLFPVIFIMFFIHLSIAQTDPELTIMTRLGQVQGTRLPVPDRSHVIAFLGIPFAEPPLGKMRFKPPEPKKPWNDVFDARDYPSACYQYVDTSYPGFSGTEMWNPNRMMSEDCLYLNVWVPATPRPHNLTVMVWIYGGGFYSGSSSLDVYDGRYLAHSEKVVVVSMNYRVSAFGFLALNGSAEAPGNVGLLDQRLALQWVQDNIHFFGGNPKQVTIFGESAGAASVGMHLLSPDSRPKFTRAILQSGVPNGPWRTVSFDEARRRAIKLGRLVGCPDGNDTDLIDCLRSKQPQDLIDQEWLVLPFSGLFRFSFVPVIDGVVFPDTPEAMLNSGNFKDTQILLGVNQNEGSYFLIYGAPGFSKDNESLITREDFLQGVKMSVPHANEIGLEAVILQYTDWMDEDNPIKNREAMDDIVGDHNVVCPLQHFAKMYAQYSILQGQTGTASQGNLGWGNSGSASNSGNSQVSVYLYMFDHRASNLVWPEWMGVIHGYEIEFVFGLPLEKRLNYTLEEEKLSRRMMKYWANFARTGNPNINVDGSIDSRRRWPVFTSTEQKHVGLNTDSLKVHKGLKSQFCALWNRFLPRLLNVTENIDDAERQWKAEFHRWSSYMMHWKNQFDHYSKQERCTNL
Description: Compound was evaluated for the inhibition of acetylcholinesterase (AChE) in electric eel

[4] = biological target: Acetylcholinesterase (Torpedo californica) (UniProt P04058); test: Compound was evaluated for non-competitive inhibition constant of acetylcholinesterase (AChE) from Torpedo californica; details: Tetronarce californica
Chain of Acetylcholinesterase (Torpedo californica) (P04058 22-564 limits assumed): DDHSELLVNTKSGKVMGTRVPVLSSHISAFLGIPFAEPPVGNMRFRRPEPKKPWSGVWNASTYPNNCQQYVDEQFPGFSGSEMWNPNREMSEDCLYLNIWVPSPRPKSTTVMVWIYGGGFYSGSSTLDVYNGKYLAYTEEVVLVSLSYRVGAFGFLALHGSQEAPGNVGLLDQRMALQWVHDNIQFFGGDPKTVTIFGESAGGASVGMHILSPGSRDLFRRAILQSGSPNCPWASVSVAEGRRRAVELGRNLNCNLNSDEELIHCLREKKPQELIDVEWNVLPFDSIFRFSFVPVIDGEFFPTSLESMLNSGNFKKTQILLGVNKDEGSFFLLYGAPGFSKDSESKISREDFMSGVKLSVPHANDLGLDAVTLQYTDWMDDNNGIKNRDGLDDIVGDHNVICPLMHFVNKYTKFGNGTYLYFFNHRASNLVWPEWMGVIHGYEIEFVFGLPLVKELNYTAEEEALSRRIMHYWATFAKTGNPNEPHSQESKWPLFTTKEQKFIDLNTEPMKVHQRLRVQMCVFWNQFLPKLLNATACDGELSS

[5] = biological target: T1, Acetylcholinesterase; remark: listed apart in the source
[6] = biological target: Acetylcholinesterase (Homo sapiens, UniProt P22303)
Chain of Acetylcholinesterase (Homo sapiens, UniProt P22303) (P22303 whole entry): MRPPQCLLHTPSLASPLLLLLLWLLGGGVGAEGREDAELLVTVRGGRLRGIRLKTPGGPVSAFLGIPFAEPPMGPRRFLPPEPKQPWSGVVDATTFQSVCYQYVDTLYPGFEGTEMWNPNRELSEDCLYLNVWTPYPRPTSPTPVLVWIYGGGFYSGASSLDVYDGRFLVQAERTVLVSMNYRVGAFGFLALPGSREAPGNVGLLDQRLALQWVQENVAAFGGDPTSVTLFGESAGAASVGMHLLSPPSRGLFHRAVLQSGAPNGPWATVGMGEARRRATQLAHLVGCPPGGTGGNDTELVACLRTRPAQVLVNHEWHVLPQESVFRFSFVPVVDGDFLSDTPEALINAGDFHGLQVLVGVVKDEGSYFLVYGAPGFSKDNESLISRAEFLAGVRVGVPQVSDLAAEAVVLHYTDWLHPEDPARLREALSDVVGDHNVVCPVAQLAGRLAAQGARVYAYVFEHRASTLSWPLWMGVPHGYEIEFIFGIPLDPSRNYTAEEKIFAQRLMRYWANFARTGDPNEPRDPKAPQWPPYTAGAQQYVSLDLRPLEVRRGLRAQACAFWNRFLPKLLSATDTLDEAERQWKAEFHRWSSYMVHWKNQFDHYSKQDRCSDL
Description: Compound was evaluated for the inhibition of acetylcholinesterase (AChE) in human erythrocytes

[7] = biological target: T2, Acetylcholinesterase; test: Compound was evaluated for competitive inhibition constant of acetylcholinesterase (AChE) from Torpedo californica; design: species or system Tetronarce californica
[8] = biological target: T3, Acetylcholinesterase; test: Compound was evaluated for the inhibition of acetylcholinesterase in electric eel
[9] = biological target: T2, Acetylcholinesterase; test: Compound was evaluated for the inhibition of acetylcholinesterase in Torpedo californica; design: species or system Tetronarce californica
[10] = biological target: T1, Acetylcholinesterase; test: Compound was evaluated for the inhibition of acetylcholinesterase (AChE) in bovine erythrocytes; assay type: cell-based

| SMILES | IC50 [1] | IC50 [2] | IC50 [3] | KI' [4] | IC50 [5] | IC50 [6] | Ki [7] | IC50 [8] | IC50 [9] | IC50 [10] |
| --- | --- | --- | --- | --- | --- | --- | --- | --- | --- | --- |
| CN(C)c1ccc(CC(=O)NCCCCCCCCCCCCNC23CC4CC(CC(C4)C2)C3)cc1 | 20 µM | 3.3 µM | 8.9 µM | 4.1 µM | 19 µM | > 100 µM | 1.8 µM |  |  |  |
| CN(C)c1ccc(CC(=O)NCCCCCCCCCCNC23CC4CC(CC(C4)C2)C3)cc1 | 77 µM |  |  | 5.3 µM | 95 µM | > 100 µM | 2.5 µM | 14 µM | 5.3 µM |  |
| CN(C)c1ccc(CC(=O)NCCCCCCCCCNC23CC4CC(CC(C4)C2)C3)cc1 |  |  |  | 7 µM |  |  | 3.4 µM |  |  |  |
| CN(C)c1ccc(CC(=O)NCCCCCCCNC23CC4CC(CC(C4)C2)C3)cc1 |  |  |  | 13 µM |  |  | 7 µM |  |  |  |
| CN(C)c1ccc(CC(=O)NCCCCCCCCCCCNC23CC4CC(CC(C4)C2)C3)cc1 |  |  |  | 5.2 µM |  |  | 2.1 µM |  |  |  |
| CN(C)c1ccc(CC(=O)NCCCCCCCCNC23CC4CC(CC(C4)C2)C3)cc1 | > 100 µM |  | 28 µM | 10 µM |  | > 100 µM | 5.5 µM |  | 10 µM | > 100 µM |
